Results on 28 compounds are retold here after patent US7704995B2 (Exelixis, Inc., priority 2003, dated 2010).

The experiment addresses T1, Chk1 (Homo sapiens, UniProt O14757).
T1 construct: purchased Upstate Biotechnology
T1 sequence (O14757 1-476): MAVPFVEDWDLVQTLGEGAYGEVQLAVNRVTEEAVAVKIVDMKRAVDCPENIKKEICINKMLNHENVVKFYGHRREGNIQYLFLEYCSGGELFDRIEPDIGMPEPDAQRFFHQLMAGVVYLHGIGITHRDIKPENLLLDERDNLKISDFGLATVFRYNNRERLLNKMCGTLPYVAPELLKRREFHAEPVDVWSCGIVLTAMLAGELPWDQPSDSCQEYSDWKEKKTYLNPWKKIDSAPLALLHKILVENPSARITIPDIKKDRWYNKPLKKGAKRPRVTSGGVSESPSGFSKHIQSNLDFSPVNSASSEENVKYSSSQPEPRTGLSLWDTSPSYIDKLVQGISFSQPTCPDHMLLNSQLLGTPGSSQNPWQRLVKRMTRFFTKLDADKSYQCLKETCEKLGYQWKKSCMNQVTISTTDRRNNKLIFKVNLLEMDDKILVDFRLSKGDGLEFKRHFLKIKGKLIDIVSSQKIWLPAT
Briefly: Chk1 kinase assay: incorporation of γ-33P ATP into immobilized myelin basic protein. The format is biochemical. The settings on record: Table 11, Chk1 only; class symbols A-D; read-out: Chk1 IC50. The essentials: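 MBP coated on plates (20 μg/ml) was phosphorylated by Chk1 (10 nM) or Chk2 (20 nM) with γ-33P ATP plus 10 μM (Chk1) or 30 μM (Chk2) unlabeled ATP, 1 h at room temperature, 1% DMSO. Bound radioactivity was counted by scintillation after washing; IC50 or Ki derived from fitted rate data.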
The IC50 is the point on the concentration scale where inhibition reaches its midpoint. As for `Nc1ncc(-c2cccc(NC(=O)c3ccc(-c4cc(C(F)(F)F)ccc4Cl)o3)c2)nc1C(=O)N[C@H]1CCCNC1` [Example 899, 3-amino-6-{3-[({5-[2-chloro-5-(trifluoromethyl)phenyl]furan-2-yl}carbonyl)amino]phenyl}-N-[(3S)-piperidin-3-yl]pyrazine-2-carboxamide], the IC50 was < 50 nM.

Consider `CN(C)c1ccc(C(=O)Nc2cccc(-c3cnc(N)c(C(=O)N[C@H]4CCCNC4)n3)c2)c2ccccc12` [Example 900, 3-amino-6-[3-({[4-(dimethylamino)naphthalen-1-yl]carbonyl}amino)phenyl]-N-[(3S)-piperidin-3-yl]pyrazine-2-carboxamide], for which the IC50 was < 50 nM.

In the case of `Nc1ncc(-c2cccc(NC(=O)c3ccc(-c4cnns4)cc3)c2)nc1C(=O)N[C@H]1CCCNC1` [Example 901, 3-amino-N-[(3S)-piperidin-3-yl]-6-[3-({[4-(1,2,3-thiadiazol-5-yl)phenyl]carbonyl}amino)phenyl]pyrazine-2-carboxamide], the IC50 is < 50 nM.

Turning to `Cc1cc(C(=O)Nc2cccc(-c3cnc(N)c(C(=O)N[C@H]4CCCNC4)n3)c2)n(C)n1` [Example 902, 3-amino-6-(3-{[(1,3-dimethyl-1H-pyrazol-5-yl)carbonyl]amino}phenyl)-N-[(3S)-piperidin-3-yl]pyrazine-2-carboxamide], the 50% inhibitory concentration (IC50) is < 50 nM.

Regarding `CN(C)c1ccc(C(=O)NCc2cccc(-c3cnc(N)c(C(=O)N[C@H]4CCCNC4)n3)c2)cc1` [Example 903, 3-amino-6-{3-[({[4-(dimethylamino)phenyl]carbonyl}amino)methyl]phenyl}-N-[(3S)-piperidin-3-yl]pyrazine-2-carboxamide], the 50% inhibitory concentration (IC50) was < 50 nM.

`Nc1ncc(-c2cccc(OCCO)c2)nc1C(=O)N[C@H]1CCCNC1` [Example 904, 3-amino-6-{3-[(2-hydroxyethyl)oxy]phenyl}-N-[(3S)-piperidin-3-yl]pyrazine-2-carboxamide]: the IC50 is < 50 nM.

Turning to `Nc1ncc(-c2cccc(CNS(=O)(=O)c3ccc4c(c3)CCO4)c2)nc1C(=O)N[C@H]1CCCNC1` [Example 905, 3-amino-6-(3-{[(2,3-dihydro-1-benzofuran-5-ylsulfonyl)amino]methyl}phenyl)-N-[(3S)-piperidin-3-yl]pyrazine-2-carboxamide], the concentration for half-maximal inhibition (IC50) is < 50 nM.

`Nc1ncc(-c2cccc(CNS(=O)(=O)c3ccc4c(c3)OCCCO4)c2)nc1C(=O)N[C@H]1CCCNC1` [Example 906, 3-amino-6-(3-{[(3,4-dihydro-2H-1,5-benzodioxepin-7-ylsulfonyl)amino]methyl}phenyl)-N-[(3S)-piperidin-3-yl]pyrazine-2-carboxamide]: the IC50 was < 50 nM.

`Nc1ncc(-c2cccc(CNS(=O)(=O)c3ccc4cccnc4c3)c2)nc1C(=O)N[C@H]1CCCNC1` [Example 907, 3-amino-N-[(3S)-piperidin-3-yl]-6-(3-{[(quinolin-7-ylsulfonyl)amino]methyl}phenyl)pyrazine-2-carboxamide]: the half-maximal inhibitory concentration (IC50) fell in the range of 50 to 1000 nM.

As for `Nc1ncc(-c2cccc(CNC(=O)Nc3ccc(-c4ccccc4)cc3)c2)nc1C(=O)N[C@H]1CCCNC1` [Example 908, 3-amino-6-[3-({[(biphenyl-4-ylamino)carbonyl]amino}methyl)phenyl]-N-[(3S)-piperidin-3-yl]pyrazine-2-carboxamide], the half-inhibitory concentration (IC50) is < 50 nM.

On to `Nc1ncc(-c2cccc(NC(=O)c3ccc(Br)cc3F)c2)nc1C(=O)N[C@H]1CCCNC1` [Example 909, 3-amino-6-(3-{[(4-bromo-2-fluorophenyl)carbonyl]amino}phenyl)-N-[(3S)-piperidin-3-yl]pyrazine-2-carboxamide], for which the half-maximal inhibitory concentration (IC50) was < 50 nM.

With `Nc1ncc(-c2cccc(NC(=O)c3cnc4ccccc4c3)c2)nc1C(=O)N[C@H]1CCCNC1` [Example 910, N-[3-(5-amino-6-{[(3S)-piperidin-3-ylamino]carbonyl}pyrazin-2-yl)phenyl]quinoline-3-carboxamide], the IC50 was < 50 nM.

As for `COc1ccc2c(CC(=O)Nc3cccc(-c4cnc(N)c(C(=O)N[C@H]5CCCNC5)n4)c3)coc2c1` [Example 911, 3-amino-6-[3-({[6-(methyloxy)-1-benzofuran-3-yl]acetyl}amino)phenyl]-N-[(3S)-piperidin-3-yl]pyrazine-2-carboxamide], the 50% inhibitory concentration (IC50) is < 50 nM.

As for `Nc1ncc(-c2cccc(NC(=O)c3ccccc3-c3ccc(C(F)(F)F)cc3)c2)nc1C(=O)N[C@H]1CCCNC1` [Example 912, 3-amino-N-[(3S)-piperidin-3-yl]-6-[3-({[4′-(trifluoromethyl)biphenyl-2-yl]carbonyl}amino)phenyl]pyrazine-2-carboxamide], the IC50 was < 50 nM.

For `Nc1ncc(-c2cccc(NC(=O)Cc3cc(C(F)(F)F)cc(C(F)(F)F)c3)c2)nc1C(=O)N[C@H]1CCCNC1` [Example 913, 3-amino-6-[3-({[3,5-bis(trifluoromethyl)phenyl]acetyl}amino)phenyl]-N-[(3S)-piperidin-3-yl]pyrazine-2-carboxamide], the IC50 is < 50 nM.

For `Nc1ncc(-c2cccc(CNC(=O)Nc3ccc(F)cc3F)c2)nc1C(=O)N[C@H]1CCCNC1` [Example 914, 3-amino-6-{3-[({[(2,4-difluorophenyl)amino]carbonyl}amino)methyl]phenyl}-N-[(3S)-piperidin-3-yl]pyrazine-2-carboxamide], the IC50 is < 50 nM.

For `Nc1ncc(-c2cccc(CNS(=O)(=O)c3ccccc3C(F)(F)F)c2)nc1C(=O)N[C@H]1CCCNC1` [Example 915, 3-amino-N-[(3S)-piperidin-3-yl]-6-{3-[({[2-(trifluoromethyl)phenyl]sulfonyl}amino)methyl]phenyl}pyrazine-2-carboxamide], the IC50 was in the range of 50 to 1000 nM.

Turning to `Nc1ncc(-c2cccc(CNS(=O)(=O)c3ccc(OC(F)(F)F)cc3)c2)nc1C(=O)N[C@H]1CCCNC1` [Example 916, 3-amino-N-[(3S)-piperidin-3-yl]-6-(3-{[({4-[(trifluoromethyl)oxy]phenyl}sulfonyl)amino]methyl}phenyl)pyrazine-2-carboxamide], the IC50 lay in the range of 50 to 1000 nM.

For `Nc1ncc(-c2cccc(CNS(=O)(=O)c3ccccc3OC(F)(F)F)c2)nc1C(=O)N[C@H]1CCCNC1` [Example 917, 3-amino-N-[(3S)-piperidin-3-yl]-6-(3-{[({2-[(trifluoromethyl)oxy]phenyl}sulfonyl)amino]methyl}phenyl)pyrazine-2-carboxamide], the half-inhibitory concentration (IC50) was in the range of 50 to 1000 nM.

For the compound `Nc1ncc(-c2cccc(CNS(=O)(=O)c3ccc(C(F)(F)F)cc3)c2)nc1C(=O)N[C@H]1CCCNC1` [Example 918, 3-amino-N-[(3S)-piperidin-3-yl]-6-{3-[({[4-(trifluoromethyl)phenyl]sulfonyl}amino)methyl]phenyl}pyrazine-2-carboxamide], the half-inhibitory concentration (IC50) was 50 to 1000 nM.

With `Nc1ncc(-c2cccc(CNC(=O)Nc3ccccc3OC(F)(F)F)c2)nc1C(=O)N[C@H]1CCCNC1` [Example 919, 3-amino-N-[(3S)-piperidin-3-yl]-6-[3-({[({2-[(trifluoromethyl)oxy]phenyl}amino)carbonyl]amino}methyl)phenyl]pyrazine-2-carboxamide], the half-inhibitory concentration (IC50) was 50 to 1000 nM.

Consider `CSc1ccccc1NC(=O)NCc1cccc(-c2cnc(N)c(C(=O)N[C@H]3CCCNC3)n2)c1` [Example 920, 3-amino-6-(3-{[({[2-(methylthio)phenyl]amino}carbonyl)amino]methyl}phenyl)-N-[(3S)-piperidin-3-yl]pyrazine-2-carboxamide], for which the IC50 was < 50 nM.

Consider `Cc1cc(Br)cc(NC(=O)NCc2cccc(-c3cnc(N)c(C(=O)N[C@H]4CCCNC4)n3)c2)c1` [Example 921, 3-amino-6-{3-[({[(3-bromo-5-methylphenyl)amino]carbonyl}amino)methyl]phenyl}-N-[(3S)-piperidin-3-yl]pyrazine-2-carboxamide], for which the half-inhibitory concentration (IC50) is < 50 nM.

In the case of `Nc1ncc(-c2cccc(CNC(=O)Nc3ccccc3Br)c2)nc1C(=O)N[C@H]1CCCNC1` [Example 922, 3-amino-6-{3-[({[(2-bromophenyl)amino]carbonyl}amino)methyl]phenyl}-N-[(3S)-piperidin-3-yl]pyrazine-2-carboxamide], the IC50 was < 50 nM.

As to `NCc1cccc(-c2cnc(N)c(-c3nc([C@H]4CCCNC4)n[nH]3)n2)c1` [Example 923, 5-[3-(aminomethyl)phenyl]-3-{3-[(3S)-piperidin-3-yl]-1H-1,2,4-triazol-5-yl}pyrazin-2-amine], the IC50 was < 50 nM.

Consider `CN1CCN(c2ccc(CNC(=O)c3cccc(-c4cnc(N)c(C(=O)N[C@H]5CCCNC5)n4)c3)cc2)CC1` [Example 924, 3-amino-6-{3-[({[4-(4-methylpiperazin-1-yl)phenyl]methyl}amino)carbonyl]phenyl}-N-[(3S)-piperidin-3-yl]pyrazine-2-carboxamide], for which the IC50 is < 50 nM.

On to `Nc1ncc(-c2cccc(C(=O)NCCc3ccc(F)cc3)c2)nc1C(=O)N[C@H]1CCCNC1` [Example 925, 3-amino-6-[3-({[2-(4-fluorophenyl)ethyl]amino}carbonyl)phenyl]-N-[(3S)-piperidin-3-yl]pyrazine-2-carboxamide], for which the concentration for half-maximal inhibition (IC50) was < 50 nM.

For `Nc1ncc(-c2cccc(C(=O)NCCN3CCOCC3)c2)nc1C(=O)N[C@H]1CCCNC1` [Example 926, 3-amino-6-(3-{[(2-morpholin-4-ylethyl)amino]carbonyl}phenyl)-N-[(3S)-piperidin-3-yl]pyrazine-2-carboxamide], the IC50 was 50 to 1000 nM.
